The target of assay [1] is human Werner helicase (WRN, amino acids 517-1235 with L1074F point mutation) (Homo sapiens (Human), UniProt Q14191, L1074F). Put plainly: WRN (BV08) ADP-Glo assay. The conditions noted are these: human WRN (aa 517-1235, L1074F), read-out: ADP-Glo_hWRN_IC50. The assay is classed as biochemical. Summed up:
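ADP-Glo luminescence read after 60 min, 25 °C reaction of 0.15 nM WRN (517-1235, L1074F, Sf9-expressed, tag removed) with 0.1 nM DNA duplex and 5 μM ATP, following 15 min compound preincubation; 20 mM Bicine pH 7.5, 1% DMSO. IC50 from 3- or 4-parameter fit of % inhibition.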
(In general: In ADP-Glo the light output rises with the ADP produced.)

Assay [2] relates to p21 induction in HCT 116 cells. The assay is described as follows: p21 induction in cells (In-Cell Western, p21/GAPDH ratio). It is filed as cell-based. The following applies: 24 h compound incubation, read-out: p21_EC50. The method, boiled down:
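EC50 values come from nonlinear fits of percent activation, defined by the 800/700 nm p21-to-GAPDH ratio scaled between DMSO (low) and internal WRN inhibitor (high) controls. In-Cell Western read after 24 h compound exposure of HCT 116 cells at 37° C. Duplicate 11-point series, 2-fold steps, usually starting at 10 μM.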

Read-outs that look alike come from different tables or passages of the source.

Chain of human Werner helicase (WRN, amino acids 517-1235 with L1074F point mutation) (Q14191 other isoform, or with tags, fused parts or gaps L1074F (already in the parent)): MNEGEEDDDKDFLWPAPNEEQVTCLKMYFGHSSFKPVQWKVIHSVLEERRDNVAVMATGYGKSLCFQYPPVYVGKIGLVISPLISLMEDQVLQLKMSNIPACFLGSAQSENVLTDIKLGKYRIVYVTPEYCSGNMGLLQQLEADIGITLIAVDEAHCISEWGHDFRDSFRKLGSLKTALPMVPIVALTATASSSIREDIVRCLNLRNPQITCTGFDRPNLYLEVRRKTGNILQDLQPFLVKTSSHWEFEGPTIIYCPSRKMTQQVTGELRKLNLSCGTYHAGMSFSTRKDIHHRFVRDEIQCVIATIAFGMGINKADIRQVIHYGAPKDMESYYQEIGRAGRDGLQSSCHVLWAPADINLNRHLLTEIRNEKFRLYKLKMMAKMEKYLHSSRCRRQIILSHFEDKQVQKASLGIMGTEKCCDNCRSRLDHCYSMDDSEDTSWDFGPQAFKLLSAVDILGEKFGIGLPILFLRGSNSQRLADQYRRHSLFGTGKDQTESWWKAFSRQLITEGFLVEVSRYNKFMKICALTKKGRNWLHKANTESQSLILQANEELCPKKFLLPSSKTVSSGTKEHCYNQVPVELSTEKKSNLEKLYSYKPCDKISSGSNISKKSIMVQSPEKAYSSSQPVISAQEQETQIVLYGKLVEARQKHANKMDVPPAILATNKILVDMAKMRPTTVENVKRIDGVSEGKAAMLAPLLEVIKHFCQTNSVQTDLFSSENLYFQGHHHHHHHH

For the compound `CCc1c(N2CCN(C(=O)c3ncnc(C)c3O)CC2)c(=O)c2nn(-c3ccnc(OC)c3)nc2n1CC(=O)NC12CC(C3CC3)(C1)C2` [Compound I-135, N-{3-cyclopropylbicyclo[1.1.1]pentan-1-yl}-2-{5-ethyl-6-[4-(5-hydroxy-6-methylpyrimidine-4-carbonyl)piperazin-1-yl]-2-(2-methoxypyridin-4-yl)-7-ox0-2H,4H,7H-[1,2,3]triazolo[4,5-b]pyridin-4-yl}acetamide], the IC50 in assay [1] lay in the range of 5 to 50 nM. The EC50 in assay [2] (Homo sapiens) is ≤ 500 nM.

With `CCc1c(N2CCN(C(=O)c3c(OC)ncc(C)c3O)[C@H]3CC[C@@H]32)c(=O)c2nn(-c3ccnc(OC)c3)nc2n1CC(=O)NC12CC(C(C)C)(C1)C2` [Compound I-116, 2-{5-ethyl-6-[(1S,6S)-5-(4-hydroxy-2-methoxy-5-methylpyridine-3-carbonyl)-2,5-diazabicyclo[4.2.0]octan-2-yl]-2-(2-methoxypyridin-4-yl)-7-oxo-2H,4H,7H-[1,2,3]triazolo[4,5-b]pyridin-4-yl}-N-[3-(propan-2-yl)bicyclo[1.1.1]pentan-1-yl]acetamide], the IC50 in assay [1] was in the range of 5 to 50 nM. The EC50 in assay [2] (Homo sapiens) is ≤ 500 nM.

In the case of `CCc1c(N2CCN(C(=O)c3ncnc(C)c3O)[C@H]3CC[C@@H]32)c(=O)c2nn(-c3ccnc(C)c3)nc2n1CC(=O)Nc1ccc(C(F)(F)F)cc1Cl` [Compound I-9, N-(2-chloro-4-(trifluoromethyl)phenyl)-2-(5-ethyl-6-((1S,6S)-5-(5-hydroxy-6-methylpyrimidine-4-carbonyl)-2,5-diazabicyclo[4.2.0]octan-2-yl)-2-(2-methylpyridin-4-yl)-7-oxo-2,7-dihydro-4H-[1,2,3]triazolo[4,5-b]pyridin-4-yl)acetamide], in assay [1], the IC50 is 5 to 50 nM. In addition, the EC50 in assay [2] (Homo sapiens) is ≤ 500 nM.

In the case of `CCc1c(N2CCN(C(=O)c3ncnc(C)c3O)[C@H]3CC[C@@H]32)c(=O)c2nn(-c3ccnc(C)c3)nc2n1CC(=O)NC12CC(C3CC3)(C1)C2` [Compound I-84, N-{3-cyclopropylbicyclo[1.1.1]pentan-1-yl}-2-{5-ethyl-6-[(1S,6S)-5-(5-hydroxy-6-methylpyrimidine-4-carbonyl)-2,5-diazabicyclo[4.2.0]octan-2-yl]-2-(2-methylpyridin-4-yl)-7-oxo-2H,4H,7H-[1,2,3]triazolo[4,5-b]pyridin-4-yl}acetamide], the IC50 in assay [1] was in the range of 5 to 50 nM. Further, in assay [2], the EC50 was ≤ 500 nM.

`CCc1c(N2CCN(C(=O)c3c(O)ccc4ncoc34)CC2)c(=O)c2nn(-c3ccnc(OC)c3)nc2n1CC(=O)NC12CC(C(F)(F)F)(C1)C2` [Compound I-3, 2-(5-ethyl-6-(4-(6-hydroxybenzo[d]oxazole-7-carbonyl)piperazin-1-yl)-2-(2-methoxypyridin-4-yl)-7-oxo-2,7-dihydro-4H-[1,2,3]triazolo[4,5-b]pyridin-4-yl)-N-(3-(trifluoromethyl)bicyclo[1.1.1]pentan-1-yl)acetamide]: in assay [1], the IC50 was 5 to 50 nM. Further, the EC50 in assay [2] was ≤ 500 nM.

As to `CCc1c(N2CCN(C(=O)c3cccnc3OC)[C@H]3CC[C@@H]32)c(=O)c2nn(C3=CCOCC3)nc2n1CC(=O)NC12CC(C(C)C)(C1)C2` [Compound I-198, 2-[2-(3,6-dihydro-2H-pyran-4-yl)-5-ethyl-6-[(1S,6S)-5-(2-methoxypyridine-3-carbonyl)-2,5-diazabicyclo[4.2.0]octan-2-yl]-7-oxo-2H,4H,7H-[1,2,3]triazolo[4,5-b]pyridin-4-yl]-N-[3-(propan-2-yl)bicyclo[1.1.1]pentan-1-yl]acetamide], the IC50 in assay [1] lay within 5 to 50 nM. For the same compound, the EC50 in assay [2] (Homo sapiens) is ≤ 500 nM.

On to `CCc1c(N2CCN(C(=O)c3nocc3O)[C@H]3CC[C@@H]32)c(=O)c2nn(C3=CCOCC3)nc2n1CC(=O)NC12CC(C(C)C)(C1)C2` [Compound I-171, 2-[2-(3,6-dihydro-2H-pyran-4-yl)-5-ethyl-6-[(1S,6S)-5-(4-hydroxy-1,2-oxazole-3-carbonyl)-2,5-diazabicyclo[4.2.0]octan-2-yl]-7-oxo-2H,4H,7H-[1,2,3]triazolo[4,5-b]pyridin-4-yl]-N-[3-(propan-2-yl)bicyclo[1.1.1]pentan-1-yl]acetamide], for which the IC50 in assay [1] is ≤ 5 nM. Moreover, the EC50 in assay [2] (Homo sapiens) was ≤ 500 nM.

For the compound `CCc1c(N2CCN(C(=O)c3ncnc(C)c3O)[C@H]3CC[C@@H]32)c(=O)c2nn(-c3ccnc(OC)c3)nc2n1CC(=O)NC1CCC2(CC1)CC2(F)F` (stereo partly drawn) [Compound I-67, N-{1,1-difluorospiro[2.5]octan-6-yl}-2-{5-ethyl-6-[(1S,6S)-5-(5-hydroxy-6-methylpyrimidine-4-carbonyl)-2,5-diazabicyclo[4.2.0]octan-2-yl]-2-(2-methoxypyridin-4-yl)-7-oxo-2H,4H,7H-[1,2,3]triazolo[4,5-b]pyridin-4-yl}acetamide], the IC50 in assay [1] is 5 to 50 nM. For the same compound, the EC50 in assay [2] (Homo sapiens) was > 5000 nM.

As to `CCc1c(N2CCN(C(=O)c3ncnc(C)c3O)[C@H]3CC[C@@H]32)c(=O)c2nn(C3CC3)nc2n1CC(=O)NC12CC(C3CC3)(C1)C2` [Compound I-202, 2-{2-cyclopropyl-5-ethyl-6-[(1S,6S)-5-(5-hydroxy-6-methylpyrimidine-4-carbonyl)-2,5-diazabicyclo[4.2.0]octan-2-yl]-7-oxo-2H,4H,7H-[1,2,3]triazolo[4,5-b]pyridin-4-yl}-N-{3-cyclopropylbicyclo[1.1.1]pentan-1-yl}acetamide], in assay [1], the IC50 is 5 to 50 nM. In addition, in assay [2] (Homo sapiens), the EC50 lay in the range of 500 to 2000 nM.

For the origin of these results see US20250129069A1, “TRIAZOLO WRN INHIBITORS” (Nimbus Wadjet, Inc., priority 2023, published 2025).
